# From patent US20150342956A1, “METHODS OF TREATMENT FOR CONDITIONS MEDIATED BY SUBSTANCE P” (Beller Pharmaceuticals LLC, priority 2014, published 2015)
# How the values were obtained:
# [1] = system: INS symptoms in patients with a diagnosis of atypical reflux; experiment: Retrospective medical record review: global level of improvement (GLI) with immunotherapy and/or oral medications; format: in vivo, human; conditions: GLI 0-100% score
# Description: Some symptoms of INS have previously been associated with atypical reflux. This example describes a retrospective medical record review for cases in which these symptoms were treated with immunotherapy (allergy shots) and/or oral medications (omeprazole, gabapentin, and/or baclofen).
# The population for this example included patients 18 years or older with a diagnosis of atypical reflux and a recorded diagnostic code of 530.81 (see, e.g., http://www.cms.gov/Medicare/Coding/ICD9ProviderDiagnosticCodes/index.html). A randomized sample of 307 cases was derived from a total of 650 patients.
# Of the 307 cases, 191 (62.2%) patients tested positive for allergy, 74 (24.1%) were negative, and 42 (13.7%) had unknown allergy status. Allergy refers to IgE-mediated allergies such as ragweed, dust mites, trees, grass, pets, stinging insects, peanuts, etc. Of the 191 cases with allergy, 57 (29.8%) had no immunotherapy, 8 (4.2%) had received immunotherapy in the past, and 126 (66.0%) were currently receiving immunotherapy. Of the 126 currently receiving immunotherapy (abbreviated below as “IT”), 70 (55.6%) had reached maintenance dosing (defined as the effective, therapeutic dose; “on main”) and 56 […] had not yet reached maintenance dosing (“not on main”). The period of immunotherapy is about 3-5 years, and individuals typically reach maintenance dosing by the second half of the first year.
# Of the 307 cases, 213 (69.3%) were taking one medication and 86 (28%) were taking no medication. Seven patients were taking two medications, and one patient was taking three medications. Three oral medications used to treat INS were compared: high dose acid suppression using omeprazole (40 mg twice a day), baclofen (40 mg twice a day), and gabapentin (300 mg gradually increasing from one to three times a day).
# Global level of improvement (GLI) was represented by a 0-100% score. At each clinical visit, patients were asked to estimate the percentage of their overall improvement. Those figures were entered into the medical record as a GLI score. Trials documented as failed (stopped either due to lack of benefit or dose-limiting side effects) or inadequate (dose never titrated to benefit or side effect) are not included in the results below.
# [2] = system: INS symptoms; experiment: Exemplary cases of INS: patient-ranked symptom severity (1-10) and GLI score before and after treatment; format: in vivo, human; conditions: for Global Improvement (global level of improvement): three months (gabapentin stopped more than a month prior)
# Description: This example describes three exemplary cases of INS. Patients were given a list of INS symptoms and asked to rank those present on a scale of 1-10, with 10 indicating most severe. Treatment was provided (gabapentin, omeprazole, and/or immunotherapy).
# Patient two is a person who presented complaining of cough, runny nose, and sneezing. […] They were started on gabapentin (900 mg) and returned in two weeks for re-evaluation. They reported 60% global level of improvement with gabapentin. They were also started on immunotherapy for its long-lasting benefits. They returned for further evaluation three months later to report they had improved by 85% and had stopped the gabapentin more than a month prior to their last visit. Their symptoms were scored for severity from 1 (mild) to 10 (severe) on initial evaluation, after gabapentin, and after three months of immunotherapy. Their scores are below:
# Patient three is a person who presented complaining of cough, post nasal drip, and runny nose. […] The patient was started on immunotherapy and returned for follow-up after four months of immunotherapy. Due to their busy schedule the patient had missed several shot visits and their immunotherapy doses were never increased to the maximum, maintenance dose. They were receiving doses at 1/10th of the maintenance dose. They reported 40% improvement. Omeprazole 40 mg two times daily was added to their regimen and they returned for re-evaluation one week later to report 100% improvement. Their symptom scores are below:
# Patient one is a child who presented with their parent complaining of shortness of breath and cough. […] Their parent stated that they commonly wet the bed 2-3 times each night. They were started on omeprazole 20 mg twice a day and returned in a week. […] Their parent estimated 45% global level of improvement. The omeprazole was discontinued due to headaches and they were started on gabapentin. Their parent was advised to increase the dose slowly until it seemed to help or was causing side effects. They returned in two weeks for re-evaluation and had achieved 900 mg twice daily on gabapentin. Their parent estimated 85% global level of improvement.
# [3] = No IT (no allergy, or positive allergy but no immunotherapy)
# [4] = Patient one, omeprazole 20 mg twice a day, one week, then gabapentin 900 mg twice daily, two weeks
# [5] = Patient one, score 1-10, 0 = not present, initial visit 0, omeprazole 20 mg twice a day, one week, then gabapentin 900 mg twice daily, two weeks
# [6] = Patient one, score 1-10, 0 = not present, initial visit 3, omeprazole 20 mg twice a day, one week, then gabapentin 900 mg twice daily, two weeks
# [7] = Patient one, score 1-10, 0 = not present, initial visit 4, omeprazole 20 mg twice a day, one week, then gabapentin 900 mg twice daily, two weeks
# [8] = Patient one, score 1-10, 0 = not present, initial visit 5, omeprazole 20 mg twice a day, one week, then gabapentin 900 mg twice daily, two weeks
# [9] = Patient one, score 1-10, 0 = not present, initial visit 6, omeprazole 20 mg twice a day, one week, then gabapentin 900 mg twice daily, two weeks
# [10] = Patient one, score 1-10, 0 = not present, initial visit 7, omeprazole 20 mg twice a day, one week, then gabapentin 900 mg twice daily, two weeks
# [11] = Patient one, score 1-10, 0 = not present, initial visit 8, omeprazole 20 mg twice a day, one week, then gabapentin 900 mg twice daily, two weeks
# [12] = Patient one, score 1-10, 0 = not present, initial visit 10, omeprazole 20 mg twice a day, one week, then gabapentin 900 mg twice daily, two weeks
# [13] = Patient two, score 1-10, 0 = not present, initial visit 5, gabapentin 900 mg, two weeks, immunotherapy, three months
# [14] = Patient two, score 1-10, 0 = not present, initial visit 6, gabapentin 900 mg, two weeks, immunotherapy, three months
# [15] = Patient two, score 1-10, 0 = not present, initial visit 7, gabapentin 900 mg, two weeks, immunotherapy, three months
# [16] = Patient two, score 1-10, 0 = not present, initial visit 8, gabapentin 900 mg, two weeks, immunotherapy, three months
# [17] = Patient two, score 1-10, 0 = not present, initial visit 10, gabapentin 900 mg, two weeks, immunotherapy, three months
# [18] = Patient three, score 1-10, 0 = not present, initial visit 5, immunotherapy four months at 1/10th of maintenance dose, then omeprazole 40 mg two times daily added, one week
# [19] = Patient three, score 1-10, 0 = not present, initial visit 6, immunotherapy four months at 1/10th of maintenance dose, then omeprazole 40 mg two times daily added, one week
# [20] = Patient three, score 1-10, 0 = not present, initial visit 7, immunotherapy four months at 1/10th of maintenance dose, then omeprazole 40 mg two times daily added, one week
# [21] = Patient three, score 1-10, 0 = not present, initial visit 10, immunotherapy four months at 1/10th of maintenance dose, then omeprazole 40 mg two times daily added, one week
smiles,measurement,setting,value
"NCC(CC(=O)O)c1ccc(Cl)cc1 (stereo not shown) [Baclofen, baclofen]",Mean GLI,[1]; IT not on maintenance dosing,88.33%
same,Mean GLI,[1]; IT on maintenance dosing,70.00%
same,Mean GLI,[1]; [3],53.94%
same,Mean GLI,[1]; No allergy,65.00%
"NCC1(CC(=O)O)CCCCC1 [Gabapentin, gabapentin]","Global Improvement (global level of improvement, estimated by mother)",[2]; [4],85%
same,"Global Improvement (global level of improvement, estimated by mother)","[2]; Patient one, omeprazole 20 mg twice a day, one week, then gabapentin 900 mg twice daily, two weeks, listed as gabapentin",85%
same,Frontal Headache severity score,[2]; [5],0
same,Vulvodynia severity score,[2]; [6],0
same,Fatigue severity score,[2]; [7],2
same,Malaise severity score,[2]; [7],2
same,Nausea severity score,[2]; [7],0
same,Shortness of breath severity score,[2]; [8],5
same,Chest Tightness severity score,[2]; [9],0
same,Watery Eyes severity score,[2]; [9],0
same,Sore Throat severity score,[2]; [10],0
same,Cough severity score,[2]; [11],3
same,Pollakiuria severity score,[2]; [11],2
same,Post Nasal Drip severity score,[2]; [11],3
same,Throat Clearing severity score,[2]; [11],5
same,Bedwetting severity score,[2]; [12],0
same,Runny Nose severity score,[2]; [12],0
same,Global Improvement (global level of improvement),"[2]; Patient two, gabapentin 900 mg, two weeks, immunotherapy",60%
same,Global Improvement (global level of improvement),"[2]; Patient two, gabapentin 900 mg, two weeks, immunotherapy, listed as gabapentin",60%
same,Hoarse Voice severity score,"[2]; Patient two, score 1-10, 0 = not present, initial visit 2, gabapentin 900 mg, two weeks, immunotherapy, three months",1
same,Pain in the teeth severity score,"[2]; Patient two, score 1-10, 0 = not present, initial visit 3, gabapentin 900 mg, two weeks, immunotherapy, three months",1
same,Ear Pressure severity score,[2]; [13],2
same,Malaise severity score,[2]; [13],1
same,Watery Eyes severity score,[2]; [13],2
same,Fatigue severity score,[2]; [14],3
same,Shortness of breath severity score,[2]; [14],4
same,Chest Tightness severity score,[2]; [15],2
same,Glossodynia severity score,[2]; [15],3
same,Runny Nose severity score,[2]; [15],1
same,Sore Throat severity score,[2]; [15],1
same,Throat Clearing severity score,[2]; [15],1
same,Vertigo severity score,[2]; [15],1
same,Post Nasal Drip severity score,[2]; [16],1
same,Puffy Eyelids severity score,[2]; [16],3
same,Cough severity score,"[2]; Patient two, score 1-10, 0 = not present, initial visit 9, gabapentin 900 mg, two weeks, immunotherapy, three months",2
same,Frontal Headache severity score,[2]; [17],1
same,Itchy Eyes severity score,[2]; [17],1
same,Itchy Pharynx severity score,[2]; [17],3
same,Itchy Skin severity score,[2]; [17],4
same,Repetitive Sneezing severity score,[2]; [17],2
same,Sinus Pressure severity score,[2]; [17],3
same,Mean GLI,[1]; IT not on maintenance dosing,69.09%
same,Mean GLI,[1]; IT on maintenance dosing,70.29%
same,Mean GLI,[1]; [3],65.58%
same,Mean GLI,[1]; No allergy,55.19%
"COc1ccc2[nH]c([S+]([O-])Cc3ncc(C)c(OC)c3C)nc2c1 (stereo not shown) [Omeprazole, omeprazole]",Possible side effect,"[2]; Patient one, omeprazole 20 mg twice a day, one week, drug discontinued",some headaches
same,"Global Improvement (global level of improvement, estimated by mother)",[2]; [4],45%
same,"Global Improvement (global level of improvement, estimated by mother)","[2]; Patient one, omeprazole 20 mg twice a day, one week, then gabapentin 900 mg twice daily, two weeks, listed as omeprazole",45%
same,Frontal Headache severity score,[2]; [5],8
same,Vulvodynia severity score,[2]; [6],0
same,Fatigue severity score,[2]; [7],2
same,Malaise severity score,[2]; [7],2
same,Nausea severity score,[2]; [7],0
same,Shortness of breath severity score,[2]; [8],5
same,Chest Tightness severity score,[2]; [9],3
same,Watery Eyes severity score,[2]; [9],2
same,Sore Throat severity score,[2]; [10],5
same,Cough severity score,[2]; [11],4
same,Pollakiuria severity score,[2]; [11],2
same,Post Nasal Drip severity score,[2]; [11],3
same,Throat Clearing severity score,[2]; [11],8
same,Bedwetting severity score,[2]; [12],0
same,Runny Nose severity score,[2]; [12],5
same,Global Improvement,"[2]; Patient three, immunotherapy four months at 1/10th of maintenance dose, then omeprazole 40 mg two times daily added, one week",100%
same,Ear Pressure severity score,[2]; [18],0
same,Excessive Ear Wax severity score,[2]; [18],1
same,Pain in the teeth severity score,[2]; [18],0
same,Repetitive Sneezing severity score,[2]; [18],0
same,Epistaxis severity score,[2]; [19],0
same,Frontal Headache severity score,[2]; [19],0
same,Pollakiuria severity score,[2]; [19],0
same,Hoarse Voice severity score,[2]; [20],1
same,Itchy Eyes severity score,[2]; [20],1
same,Sore Throat severity score,[2]; [20],0
same,Watery Eyes severity score,[2]; [20],0
same,Chest Tightness severity score,[2]; [21],0
same,Cough severity score,[2]; [21],0
same,Nasal Congestion severity score,[2]; [21],0
same,Post Nasal Drip severity score,[2]; [21],0
same,Runny Nose severity score,[2]; [21],0
same,Sinus Pressure severity score,[2]; [21],0
same,Throat Clearing severity score,[2]; [21],0
same,Vertigo severity score,[2]; [21],0
same,Mean GLI,[1]; IT not on maintenance dosing,60.00%
same,Mean GLI,[1]; IT on maintenance dosing,80.00%
same,Mean GLI,[1]; [3],56.67%
same,Mean GLI,[1]; No allergy,41.00%
